Experiment [1] deals with T1, Carbonic anhydrase 3 (Bos taurus, UniProt Q3SZX4).
T1 sequence (Q3SZX4 whole entry): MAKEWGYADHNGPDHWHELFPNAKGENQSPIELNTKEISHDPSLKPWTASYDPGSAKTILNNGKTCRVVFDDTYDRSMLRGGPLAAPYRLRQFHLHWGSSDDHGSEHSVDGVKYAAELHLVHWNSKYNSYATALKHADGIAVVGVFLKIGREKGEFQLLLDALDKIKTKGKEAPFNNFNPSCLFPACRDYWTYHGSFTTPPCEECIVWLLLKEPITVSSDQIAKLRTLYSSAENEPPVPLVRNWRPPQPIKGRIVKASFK
Briefly: Inhibition of bovine carbonic anhydrase 3 using 4-nitrophenylacetate as substrate after 3 mins using spectrophotometry by Lineweaver-Burk plot analysis.

Experiment [2] concerns the target Carbonic anhydrase 1 (Homo sapiens, UniProt P00915). In words: Inhibition of human carbonic anhydrase 1 using 4-nitrophenylacetate as substrate after 3 mins using spectrophotometry by Lineweaver-Burk plot analysis.
The target in experiment [3] is Carbonic anhydrase 4 (Homo sapiens, UniProt P22748). Briefly: Inhibition of human carbonic anhydrase 4 using 4-nitrophenylacetate as substrate after 3 mins using spectrophotometry by Lineweaver-Burk plot analysis.
Experiment [4] addresses Carbonic anhydrase 6 (Homo sapiens, UniProt P23280). Briefly: Inhibition of human carbonic anhydrase 6 using 4-nitrophenylacetate as substrate after 3 mins using spectrophotometry by Lineweaver-Burk plot analysis.
Experiment [5] concerns the target Carbonic anhydrase 2 (Homo sapiens, UniProt P00918). In words: Inhibition of human carbonic anhydrase 2 using 4-nitrophenylacetate as substrate after 3 mins using spectrophotometry by Lineweaver-Burk plot analysis.

One may read the Ki as the equilibrium dissociation constant of an inhibitor or competing ligand from its target. Read a high Ki as lower affinity.

Sequence of Carbonic anhydrase 4 (P22748 whole entry): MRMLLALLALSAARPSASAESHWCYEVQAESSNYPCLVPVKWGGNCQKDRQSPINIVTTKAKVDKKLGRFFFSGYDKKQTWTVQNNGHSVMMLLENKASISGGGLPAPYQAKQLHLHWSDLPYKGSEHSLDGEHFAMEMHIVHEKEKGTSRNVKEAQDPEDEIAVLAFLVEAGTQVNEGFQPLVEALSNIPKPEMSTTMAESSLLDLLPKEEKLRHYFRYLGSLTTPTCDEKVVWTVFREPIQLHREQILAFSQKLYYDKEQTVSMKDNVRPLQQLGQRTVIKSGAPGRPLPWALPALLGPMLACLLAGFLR
Sequence of Carbonic anhydrase 6 (P23280 whole entry): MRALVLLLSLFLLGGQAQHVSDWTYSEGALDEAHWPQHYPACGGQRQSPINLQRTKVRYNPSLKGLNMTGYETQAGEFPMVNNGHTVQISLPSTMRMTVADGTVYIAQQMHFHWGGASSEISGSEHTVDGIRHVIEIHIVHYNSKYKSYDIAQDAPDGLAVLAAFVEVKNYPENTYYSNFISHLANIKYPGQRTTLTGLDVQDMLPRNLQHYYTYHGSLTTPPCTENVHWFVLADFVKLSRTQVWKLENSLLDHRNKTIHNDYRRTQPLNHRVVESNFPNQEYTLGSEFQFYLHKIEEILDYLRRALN
Sequence of Carbonic anhydrase 1 (P00915 whole entry): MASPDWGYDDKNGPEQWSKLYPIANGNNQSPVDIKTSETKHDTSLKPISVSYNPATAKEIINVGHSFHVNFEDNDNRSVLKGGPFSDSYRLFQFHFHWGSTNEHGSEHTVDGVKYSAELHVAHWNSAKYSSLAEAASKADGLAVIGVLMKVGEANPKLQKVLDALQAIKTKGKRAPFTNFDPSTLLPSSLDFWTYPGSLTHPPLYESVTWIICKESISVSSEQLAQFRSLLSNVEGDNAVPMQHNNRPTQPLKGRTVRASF

As for `Oc1ccc2c(c1)-c1[nH]c3ccccc3c1C2`, the affinity in experiment [1], expressed as Ki, was 9.42 µM.

Regarding `Oc1cccc2c1Cc1c-2[nH]c2ccccc12`, in experiment [1], affinity was put at a Ki of 8.84 µM.

In experiment [1], `COc1ccccc1OC` [1,2-DIMETHOXYBENZENE] displayed a Ki of 4.24 µM.

Regarding `COc1cc2c(c(OC)c1)-c1[nH]c3ccccc3c1C2`, the affinity in experiment [1], expressed as Ki, was 14.3 µM.

For `C[C@]12CC[C@@H]3c4ccc(OS(N)(=O)=O)cc4CC[C@H]3[C@@H]1CCC2=O` [EMATE], the Ki turned out to be 12.3 µM in experiment [2], 1.04 µM in experiment [3], 1.86 µM in experiment [4] and 12.4 µM in experiment [1].

As to `COc1ccc2c(c1OC)Cc1c-2[nH]c2ccccc12`, in experiment [1], the Ki was determined as 10.3 µM.

As to `Oc1ccccc1O` [CATECHOL], the inhibition constant (Ki) in experiment [1] stood at 3.48 µM.

`Clc1ccc2c(c1)Cc1c-2[nH]c2ccccc12` registered a Ki in experiment [1] of 8.72 µM.

In turn, `Brc1ccc2c(c1)Cc1c-2[nH]c2ccccc12` showed an inhibitory constant (Ki) in experiment [1] of 8.51 µM.

Compound `c1ccc2c(c1)Cc1c-2[nH]c2ccccc12` registered an inhibition constant Ki in experiment [1] of 17.8 µM.

Take `Fc1ccc2c(c1)Cc1c-2[nH]c2ccccc12`: affinity in experiment [1] was put at a Ki of 8.63 µM.

In experiment [1], `Oc1cc(O)c2c(c1)Cc1c-2[nH]c2ccccc12` yielded a Ki of 4.63 µM.

On to `COc1ccc2c(c1)-c1[nH]c3ccccc3c1C2`, for which the inhibition constant Ki in experiment [1] came to 15.6 µM.

Take `c1ccc2[nH]ccc2c1` [INDOLE]: the Ki is 27.4 µM in experiment [2]; 32.5 µM in experiment [5]; 2.33 µM in experiment [3]; 3.63 µM in experiment [4]; 17.6 µM in experiment [1].

`c1ccc2c3c([nH]c2c1)-c1cc2c(cc1C3)OCO2` displayed a Ki in experiment [1] of 12.7 µM.

As for `Oc1cc2c(cc1O)-c1[nH]c3ccccc3c1C2`, the Ki in experiment [1] came to 5.17 µM.

Compound `COc1cccc2c1Cc1c-2[nH]c2ccccc12` had a Ki in experiment [1] of 16.3 µM.

`COc1ccc2c(c1)Cc1c-2[nH]c2ccccc12` came in with a Ki in experiment [1] of 14.9 µM.

In experiment [1], `CCOc1ccc2nc(S(N)(=O)=O)sc2c1` [ETHOXZOLAMIDE] registered a Ki of 9.44 µM.

As for `NS(=O)(=O)Cc1noc2ccccc12` [ZONISAMIDE], the Ki in experiment [1] was determined as 8.51 µM.

`COc1ccc(OC)c2c1Cc1c-2[nH]c2ccccc12` gave a Ki in experiment [1] of 11.2 µM.

For `Oc1ccc2c(c1O)Cc1c-2[nH]c2ccccc12`, the inhibition constant Ki in experiment [1] turned out to be 2.13 µM.

With `Oc1ccc(O)c2c1Cc1c-2[nH]c2ccccc12`, the Ki in experiment [1] came to 4.34 µM.

`Oc1cccc2c1-c1[nH]c3ccccc3c1C2` came in with an inhibitory constant (Ki) in experiment [1] of 9.62 µM.

Turning to `COc1cc2c(cc1OC)-c1[nH]c3ccccc3c1C2`, the Ki in experiment [1] was determined as 15.8 µM.

In the case of `Oc1ccc2c(c1)Cc1c-2[nH]c2ccccc12`, in experiment [1], the inhibition constant (Ki) turned out to be 9.08 µM.

For the origin of these results see ChEMBL document CHEMBL1944554, “Structure-activity relationships for the interaction of 5,10-dihydroindeno[1,2-b]indole derivatives with human and bovine carbonic anhydrase isoforms I, II, III, IV and VI” (Eur J Med Chem, 2012).
